Measured values: paper PMC4715436, “The role of 2,4-dihydroxyquinoline (DHQ) in Pseudomonas aeruginosa pathogenicity” (PeerJ, 2016)

Columns and labels:
PqsR [1] = target: T1, PqsR (Pseudomonas aeruginosa, UniProt Q9I4X0); test: STD-NMR titration ([…] to […] DHQ, […] SUMO-PqsR-C87); EMSA also gave an apparent Kd of […]; format: binding; design: gene mvfR
Target sequence in this assay (Q9I4X0 87-332): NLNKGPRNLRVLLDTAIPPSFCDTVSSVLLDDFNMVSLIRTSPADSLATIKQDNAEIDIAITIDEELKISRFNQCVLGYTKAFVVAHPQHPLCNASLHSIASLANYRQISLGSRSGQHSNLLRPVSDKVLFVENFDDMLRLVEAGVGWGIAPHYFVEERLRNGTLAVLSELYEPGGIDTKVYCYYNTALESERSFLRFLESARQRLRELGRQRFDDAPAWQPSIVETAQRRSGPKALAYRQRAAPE

PqsR [2] = target: T1, PqsR; test: EMSA with lysate of E. coli Rosetta expressing His-SUMO-PqsR and biotinylated pqsA promoter DNA, semi-quantitative apparent Kd; format: biochemical; design: gene mvfR; recombinant PqsR, N-terminal His-tagged SUMO fusion
Target sequence in this assay (Q9I4X0 whole entry, the tested form may be a part): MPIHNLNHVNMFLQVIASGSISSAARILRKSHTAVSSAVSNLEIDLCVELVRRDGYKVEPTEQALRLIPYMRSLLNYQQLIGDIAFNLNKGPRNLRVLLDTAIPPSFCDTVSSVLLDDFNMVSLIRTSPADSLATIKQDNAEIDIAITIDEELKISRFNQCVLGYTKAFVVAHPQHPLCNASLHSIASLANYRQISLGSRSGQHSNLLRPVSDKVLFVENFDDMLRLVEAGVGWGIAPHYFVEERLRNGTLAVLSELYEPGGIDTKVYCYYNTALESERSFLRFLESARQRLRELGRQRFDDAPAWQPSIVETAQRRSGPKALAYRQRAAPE

[3] = system: His-SUMO-PqsR (Pseudomonas aeruginosa (PAO1?)); test: EMSA

Oc1cc(O)c2ccccc2n1 [DHQ, 2,4-dihydroxyquinoline]
Kd (PqsR [1]): ~450 nM

CCCCCCCc1[nH]c2ccccc2c(=O)c1O [PQS, 2-heptyl-3-hydroxy-4-quinolone]
Kd (PqsR [2]): 33 nM

Bio-pqsA (pqsA' promoter probe)
binding signal (fraction free probe) [3]: 0.0488
